Source: ChEMBL document CHEMBL4842385, “Indirubin Derivatives as Dual Inhibitors Targeting Cyclin-Dependent Kinase and Histone Deacetylase for Treating Cancer” (J Med Chem, 2021)
Calls of active or inactive are those of the source. No cut-off for these calls is given here.

What was measured:
[1] = Bioavailability in Sprague-Dawley rat at 50 mg/kg, ip measured up to 24 hrs by LC-MS analysis; assay type: ADME, organism-based; details: in vivo
[2] = target: T1, Protein deacetylase HDAC6 (Homo sapiens) (UniProt Q9UBN7); assay: Inhibition of HDAC6 in human A549 cells assessed as accumulation of acetylation of H3 at 1 to 10 uM measured after 48 hrs by Western blot analysis; assay type: cell-based; details: dose 1-10 µM
T1 sequence (whole entry): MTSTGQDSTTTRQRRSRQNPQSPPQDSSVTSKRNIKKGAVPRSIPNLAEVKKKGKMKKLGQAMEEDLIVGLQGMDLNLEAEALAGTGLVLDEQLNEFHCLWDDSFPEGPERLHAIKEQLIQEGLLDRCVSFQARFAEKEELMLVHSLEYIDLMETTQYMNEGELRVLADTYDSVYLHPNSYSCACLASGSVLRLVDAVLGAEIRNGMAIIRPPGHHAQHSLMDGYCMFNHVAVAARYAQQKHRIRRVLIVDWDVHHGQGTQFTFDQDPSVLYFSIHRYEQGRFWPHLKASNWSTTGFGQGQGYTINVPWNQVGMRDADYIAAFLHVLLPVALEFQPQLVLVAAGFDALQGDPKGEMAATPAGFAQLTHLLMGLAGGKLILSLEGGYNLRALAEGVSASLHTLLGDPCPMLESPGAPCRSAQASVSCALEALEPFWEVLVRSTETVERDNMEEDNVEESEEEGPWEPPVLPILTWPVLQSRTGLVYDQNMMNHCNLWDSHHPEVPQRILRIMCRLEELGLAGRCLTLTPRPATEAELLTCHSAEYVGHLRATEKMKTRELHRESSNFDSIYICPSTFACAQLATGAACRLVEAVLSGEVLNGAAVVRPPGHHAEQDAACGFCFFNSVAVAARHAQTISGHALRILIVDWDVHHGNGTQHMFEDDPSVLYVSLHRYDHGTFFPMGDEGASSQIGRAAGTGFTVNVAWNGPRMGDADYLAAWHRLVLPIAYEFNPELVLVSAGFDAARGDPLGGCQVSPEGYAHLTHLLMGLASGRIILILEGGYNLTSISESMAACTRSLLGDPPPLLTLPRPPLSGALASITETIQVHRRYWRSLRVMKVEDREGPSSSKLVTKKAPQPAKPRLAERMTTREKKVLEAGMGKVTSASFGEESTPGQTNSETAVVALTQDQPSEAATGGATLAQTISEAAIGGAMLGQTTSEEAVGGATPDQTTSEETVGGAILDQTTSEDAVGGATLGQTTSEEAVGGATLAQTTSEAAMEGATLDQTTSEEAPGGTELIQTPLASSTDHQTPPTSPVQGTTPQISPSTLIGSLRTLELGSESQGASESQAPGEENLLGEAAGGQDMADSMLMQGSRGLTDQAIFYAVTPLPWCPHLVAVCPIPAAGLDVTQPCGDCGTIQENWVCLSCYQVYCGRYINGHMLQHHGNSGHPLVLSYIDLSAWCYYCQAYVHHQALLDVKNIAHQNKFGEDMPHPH

A549 [3] = assay: Antitumor activity against human A549 cells xenografted in BALB/c nude mouse assessed as tumor growth inhibition at 50 mg/kg, iv administered for 21 consecutive days relative to control; assay type: functional; details: 504 h, time 21 day, read-out: TGI
[4] = target: T1, Protein deacetylase HDAC6 (Homo sapiens); assay: Inhibition of HDAC6 in human A549 cells assessed as accumulation of acetylation of H4 at 1 to 10 uM measured after 48 hrs by Western blot analysis; assay type: cell-based; details: dose 1-10 µM
A549 [5] = assay: Induction of apoptosis in human A549 cells measured after 48 hrs by Annexin-V/FITC-propidium iodide staining based flow cytometry analysis; assay type: functional, cell-based; details: dose 2.5-10 µM
A549 [6] = assay: Induction of apoptosis in human A549 cells assessed as downregulation of […] protein measured after 48 hrs by Western blot analysis; assay type: functional, cell-based; details: dose 1-10 µM
MCF7 [7] = assay: Antiproliferative activity against human MCF7 cells assessed as cell growth inhibition measured after 48 hrs by CCK8 assay; assay type: functional, cell-based; details: MCF7, 48 h
A549 [8] = assay: Antitumor activity against human A549 cells xenografted in BALB/c nude mouse assessed as tumor growth inhibition at 0.75 to 1.5 mg, IT (intratumoral) administered for 21 consecutive days relative to control; assay type: functional; details: dose 0.75-1.5 mg, time 21 day
A549 [9] = assay: Antitumor activity against human A549 cells xenografted in BALB/c nude mouse assessed as reduction in tumor volume at 0.75 to 1.5 mg, IT (intratumoral) administered for 21 consecutive days; assay type: functional, cell-based; details: dose 0.75-1.5 mg, time 21.0 day
MCF7 [10] = assay: Cycle arrest in human MCF7 cells assessed as increase in cell population at S phase measured after 24 hrs by propidium iodide/RNase staining based flow cytometry; assay type: functional; details: dose 2.5-10 µM
[11] = target: T1, Protein deacetylase HDAC6 (Homo sapiens); assay: Inhibition of HDAC6 in human A549 cells assessed as increase in alpha tubulin acetylation measured after 48 hrs by Western blot analysis; assay type: cell-based; details: dose 1-10 µM
[12] = Toxicity in BALB/c nude mouse xenografted with human A549 cells assessed as body weight loss at 25 to 50 mg/kg, iv administered for 21 consecutive days; assay type: organism-based; details: in vivo, 504 h, dose 25-50 mg/kg, time 21 day
[13] = target: T1, Protein deacetylase HDAC6 (Homo sapiens); assay: Inhibition of HDAC6 in human MCF7 cells assessed as accumulation of acetylation of H4 at 1 to 10 uM measured after 48 hrs by Western blot analysis; assay type: cell-based; details: dose 1-10 µM
[14] = target: T1, Protein deacetylase HDAC6 (Homo sapiens); assay: Inhibition of HDAC6 in human MCF7 cells assessed as accumulation of acetylation of H3 at 1 to 10 uM measured after 48 hrs by Western blot analysis; assay type: cell-based; details: dose 1-10 µM
MCF7 [15] = assay: Induction of apoptosis in human MCF7 cells measured after 48 hrs by Annexin-V/FITC-propidium iodide staining based flow cytometry analysis; assay type: functional, cell-based; details: dose 2.5-10 µM
[16] = target: Protein deacetylase HDAC6 (Mus musculus) (UniProt Q9Z2V5); assay: In vivo inhibition of HDAC6 in BALB/c nude mouse xenografted with human A549 cells assessed as increase in alpha tubulin acetylation at 25 to 50 mg/kg, iv administered for 21 consecutive days by immunohistochemical analysis; assay type: functional, organism-based; details: dose 25-50 mg/kg, time 21.0 day
A549 [17] = assay: Antitumor activity against human A549 cells xenografted in BALB/c nude mouse assessed as reduction in tumor weight at 25 to 50 mg/kg, iv administered for 21 consecutive days; assay type: functional, organism-based; details: dose 25-50 mg/kg, time 21.0 day
A549 [18] = assay: Antitumor activity against human A549 cells xenografted in BALB/c nude mouse assessed as tumor growth inhibition at 25 mg/kg, iv administered for 21 consecutive days relative to control; assay type: functional; details: 504 h, time 21 day, read-out: TGI
A549 [19] = assay: Induction of apoptosis in human A549 cells assessed as increase in PARP cleavage measured after 48 hrs by Western blot analysis; assay type: functional, cell-based; details: dose 1-10 µM
[20] = target: T1, Protein deacetylase HDAC6 (Homo sapiens); assay: Inhibition of HDAC6 in human K562 cells assessed as accumulation of acetylation of H3 at 1 to 10 uM measured after 48 hrs by Western blot analysis; assay type: cell-based; details: dose 1-10 µM
[21] = Toxicity in BALB/c nude mouse xenografted with human A549 cells assessed as body weight loss at 0.75 to 1.5 mg, IT(intratumoral) administered for 21 consecutive days; details: in vivo, other, 504 h, dose 0.75-1.5 mg, time 21 day

Protein deacetylase HDAC6 (Mus musculus), sequence (Q9Z2V5 whole entry): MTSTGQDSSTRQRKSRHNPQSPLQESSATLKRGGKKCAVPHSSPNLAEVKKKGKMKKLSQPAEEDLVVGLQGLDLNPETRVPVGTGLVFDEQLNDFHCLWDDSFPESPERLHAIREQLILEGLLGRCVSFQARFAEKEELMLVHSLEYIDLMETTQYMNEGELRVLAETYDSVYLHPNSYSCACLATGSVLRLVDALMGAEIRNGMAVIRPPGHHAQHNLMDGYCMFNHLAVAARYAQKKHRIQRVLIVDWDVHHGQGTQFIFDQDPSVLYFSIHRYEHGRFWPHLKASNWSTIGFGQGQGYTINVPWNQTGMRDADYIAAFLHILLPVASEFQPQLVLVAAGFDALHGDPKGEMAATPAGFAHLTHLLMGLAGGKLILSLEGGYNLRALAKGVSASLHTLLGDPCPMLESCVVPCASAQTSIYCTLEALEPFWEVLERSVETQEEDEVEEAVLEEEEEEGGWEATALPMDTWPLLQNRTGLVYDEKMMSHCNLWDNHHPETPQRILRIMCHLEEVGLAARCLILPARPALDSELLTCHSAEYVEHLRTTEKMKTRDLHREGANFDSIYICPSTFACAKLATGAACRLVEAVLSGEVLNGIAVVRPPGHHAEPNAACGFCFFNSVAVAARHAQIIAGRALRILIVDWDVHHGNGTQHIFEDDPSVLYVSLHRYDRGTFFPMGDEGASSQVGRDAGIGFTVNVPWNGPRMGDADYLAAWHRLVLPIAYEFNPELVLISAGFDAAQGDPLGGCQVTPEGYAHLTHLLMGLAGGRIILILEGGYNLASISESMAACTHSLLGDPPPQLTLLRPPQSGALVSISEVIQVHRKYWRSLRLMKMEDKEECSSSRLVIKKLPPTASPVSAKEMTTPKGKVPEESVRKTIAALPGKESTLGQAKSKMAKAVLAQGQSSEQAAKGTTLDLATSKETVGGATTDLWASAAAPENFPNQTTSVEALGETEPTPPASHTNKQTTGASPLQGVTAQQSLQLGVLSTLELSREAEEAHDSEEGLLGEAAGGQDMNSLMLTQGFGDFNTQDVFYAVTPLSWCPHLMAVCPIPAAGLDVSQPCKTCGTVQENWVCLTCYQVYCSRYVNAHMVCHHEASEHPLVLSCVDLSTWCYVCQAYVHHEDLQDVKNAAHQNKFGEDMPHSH

## O=C(CCCO/N=C1/C(=C2/C(=O)Nc3ccccc32)Nc2ccccc21)NO
[1]
  bioavailability: 13%
[2]
  inhibition: inactive
A549 [3]
  inhibition in vivo at 50 mg/kg: 66.6%
[4]
  inhibition: inactive
A549 [5]
  Activity: Dose-Dependent Effect
A549 [6]
  Activity: Dose-Dependent Effect
MCF7 [7]
  IC50: 2900 nM
A549 [8]
  TGI: 67.1%
A549 [9]
  Activity: Active
MCF7 [10]
  Activity: Dose-Dependent Effect
[11]
  inhibition: Dose-Dependent Effect
[12]
  Activity: Non-Toxic
[13]
  inhibition: inactive
[14]
  inhibition: inactive
MCF7 [15]
  Activity: Dose-Dependent Effect
[16]
  inhibition: Active
A549 [17]
  Activity: Active
A549 [18]
  inhibition in vivo at 25 mg/kg: 43.2%
A549 [19]
  Activity: Dose-Dependent Effect
[20]
  inhibition: inactive
[21]
  Activity: Non-Toxic
